Assay results from ChEMBL document CHEMBL1201862, “PubChem BioAssay data set” (2004).
Activity calls are given as the source filed them.

Legend:
[1] = target: G-protein coupled receptor 55 (Homo sapiens, UniProt Q9Y2T6); assay: GPR55 antagonists blocking LPI-driven arrestin recruitment, primary screen, imaging, U2OS, beta-arrestin-GFP, LPI agonist (AID 2013); type: functional;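 also: antagonist potency measured as reduced agonist-driven arrestin aggregation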
[2] = system: INS1; assay: beta cell apoptosis inhibitors, cytokine rescue, dose response, luminescence, retest (AID 449756); type: functional, cell-based; conditions: Rattus norvegicus;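 also: cell death triggered by IL-1 beta plus TNF-alpha plus IFN-gamma mixture; protective hits raise ATP signal compared with cytokine alone wells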
[3] = system: HEK293; assay: cells; type: functional, cell-based; conditions: Homo sapiens
[4] = target: Nucleotide-binding oligomerization domain-containing protein 2 (Homo sapiens, UniProt Q9HC29); assay: NOD2 signaling inhibitors, cell-based, luminescence, uHTS, HEK293 (AID 1566); type: functional
[5] = system: HEK293; assay: cells; type: functional, cell-based; conditions: Homo sapiens; remark: listed apart in the source
[6] = system: HEK293; assay: NOD1 signaling inhibitors, primary screen, cell-based, luminescence, uHTS (AID 1578); type: functional; conditions: Homo sapiens
[7] = target: T1, Fatty acid synthase (Homo sapiens, UniProt P49327); assay: FAS thioesterase domain inhibitors, dose response, biochemical, kinetic fluorescence intensity (AID 624326); type: functional;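 also: rate of fluorescence rise from hydrolysis of a fluorogenic O-methyl fluorescein ester substrate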
[8] = system: Streptococcus; assay: Group A Streptococcus viability loss, dose response, counter-screen for streptokinase expression inhibitor project, luminescence, BacTiterGlo (AID 1915); type: functional, organism-based;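 also: potency for reduction of bacterial viability or growth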
[9] = microbe, parasite or virus in culture; type: functional; conditions: Mycobacterium tuberculosis
[10] = system: HEK293; assay: NOD2 signaling inhibitors in MDP-stimulated cells, cell-based, uHTS, luminescence (AID 2001); type: functional; conditions: Homo sapiens
[11] = system: Streptococcus sp. 'group A'; assay: growth inhibition of control SK(-) GAS strain, dose response, counter-screen for streptokinase expression inhibitor project, luminescence, kanamycin, BacTiterGlo, confirmation (AID 1900); type: functional, organism-based
[12] = target: T1, Fatty acid synthase; assay: FAS thioesterase domain inhibitors, dose response, biochemical, endpoint fluorescence intensity, uHTS hits (AID 624327); type: functional;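 also: fluorescence from hydrolysis of an O-methyl fluorescein acyl ester substrate by the enzyme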
[13] = system: HEK293; assay: cells; type: functional, cell-based; conditions: Homo sapiens; remark: listed apart in the source
[14] = system: T-cell; assay: inhibitors of CD8+ T cell–vesicle binding, dose response, mouse 2C CD8+ T cells, flow cytometry (AID 485284); type: functional
[15] = target: Cytochrome P450 2C19 (Homo sapiens, UniProt P33261); assay: Cytochrome panel assay with activity outcomes. Panel member name: p450-cyp2c19 Compounds with AC50 equal or less than 10 uM are considered active; type: functional; conditions: read-out: AC50
[16] = target: T2, Coagulation factor XII (Homo sapiens, UniProt P00748); assay: FXIIa inhibitor potency, concentration-response, biochemical (AID 716); type: functional
T2 sequence (P00748 whole entry): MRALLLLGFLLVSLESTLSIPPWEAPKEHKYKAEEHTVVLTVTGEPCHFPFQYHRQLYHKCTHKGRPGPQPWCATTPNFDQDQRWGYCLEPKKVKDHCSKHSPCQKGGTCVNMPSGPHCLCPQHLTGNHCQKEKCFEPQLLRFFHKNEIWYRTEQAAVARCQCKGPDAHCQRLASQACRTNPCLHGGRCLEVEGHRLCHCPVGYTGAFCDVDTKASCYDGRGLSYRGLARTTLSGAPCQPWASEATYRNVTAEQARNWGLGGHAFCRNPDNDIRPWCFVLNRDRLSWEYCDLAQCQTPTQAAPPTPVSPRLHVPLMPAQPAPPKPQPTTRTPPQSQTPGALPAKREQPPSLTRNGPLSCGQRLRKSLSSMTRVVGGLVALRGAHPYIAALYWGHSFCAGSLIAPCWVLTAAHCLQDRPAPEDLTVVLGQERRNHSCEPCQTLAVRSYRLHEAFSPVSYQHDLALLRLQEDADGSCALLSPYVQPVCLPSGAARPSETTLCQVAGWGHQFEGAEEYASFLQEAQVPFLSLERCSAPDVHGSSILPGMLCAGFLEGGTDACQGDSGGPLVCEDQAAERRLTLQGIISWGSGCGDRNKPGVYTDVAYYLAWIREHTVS

[17] = Luminescence Cell-Based Dose Confirmation HTS to Identify Inhibitors of Platelet Dense Granule Release. [Related pubchem assays: 1663 (Primary HTS), 1678 (Summary of Project)]; type: functional
[18] = target: T3, Eukaryotic translation initiation factor 4H (Homo sapiens, UniProt Q15056); assay: eIF4H inhibition in translation initiation, SAR follow-up (AID 435011); type: functional
[19] = target: T4, Polyadenylate-binding protein 1 (Homo sapiens, UniProt P11940); assay: PABP inhibition in translation initiation, SAR follow-up (AID 435018); type: functional
[20] = target: Luciferin 4-monooxygenase (Photinus pyralis, UniProt P08659); assay: firefly luciferase enzyme inhibitors, dose response, biochemical, luminescence (AID 1891)
[21] = target: T4, Polyadenylate-binding protein 1; assay: PABP poly(A) RNA binding inhibitors, primary screen, biochemical, fluorescence polarization, uHTS (AID 2014)
[22] = target: T3, Eukaryotic translation initiation factor 4H; assay: human eIF4H binding inhibitors, primary screen, translation initiation inhibitor project, biochemical, uHTS, fluorescence polarization (AID 2012)
[23] = target: Bcl-2-like protein 10 (Homo sapiens, UniProt Q9HD36); assay: displacers of TR3 peptide from Bcl-B, primary screen, selectivity assay for Bfl-1 inhibitor project, biochemical, fluorescence polarization, FITC-TR3 peptide (AID 748);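 also: fluorescence polarization from a fluorescein-labelled TR3 peptide binding purified Bcl-B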

T4 sequence (P11940 whole entry): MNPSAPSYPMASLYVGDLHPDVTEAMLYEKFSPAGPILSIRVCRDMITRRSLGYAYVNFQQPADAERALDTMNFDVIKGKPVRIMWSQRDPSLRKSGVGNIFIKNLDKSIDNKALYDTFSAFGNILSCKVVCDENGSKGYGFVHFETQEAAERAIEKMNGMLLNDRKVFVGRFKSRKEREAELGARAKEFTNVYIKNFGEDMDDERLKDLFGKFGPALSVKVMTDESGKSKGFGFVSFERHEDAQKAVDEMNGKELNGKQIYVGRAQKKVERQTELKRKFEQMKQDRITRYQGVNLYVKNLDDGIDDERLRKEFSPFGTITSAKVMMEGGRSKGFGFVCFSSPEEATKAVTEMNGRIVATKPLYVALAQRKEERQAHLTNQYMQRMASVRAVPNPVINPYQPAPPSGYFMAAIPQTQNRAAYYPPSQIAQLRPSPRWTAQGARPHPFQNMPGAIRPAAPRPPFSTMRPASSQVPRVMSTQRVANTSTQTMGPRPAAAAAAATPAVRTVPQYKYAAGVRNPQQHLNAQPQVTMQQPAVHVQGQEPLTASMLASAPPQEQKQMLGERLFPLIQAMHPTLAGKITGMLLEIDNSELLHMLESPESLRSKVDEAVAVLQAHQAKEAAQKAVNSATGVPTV
T1 sequence (P49327 whole entry, the tested form may be a part): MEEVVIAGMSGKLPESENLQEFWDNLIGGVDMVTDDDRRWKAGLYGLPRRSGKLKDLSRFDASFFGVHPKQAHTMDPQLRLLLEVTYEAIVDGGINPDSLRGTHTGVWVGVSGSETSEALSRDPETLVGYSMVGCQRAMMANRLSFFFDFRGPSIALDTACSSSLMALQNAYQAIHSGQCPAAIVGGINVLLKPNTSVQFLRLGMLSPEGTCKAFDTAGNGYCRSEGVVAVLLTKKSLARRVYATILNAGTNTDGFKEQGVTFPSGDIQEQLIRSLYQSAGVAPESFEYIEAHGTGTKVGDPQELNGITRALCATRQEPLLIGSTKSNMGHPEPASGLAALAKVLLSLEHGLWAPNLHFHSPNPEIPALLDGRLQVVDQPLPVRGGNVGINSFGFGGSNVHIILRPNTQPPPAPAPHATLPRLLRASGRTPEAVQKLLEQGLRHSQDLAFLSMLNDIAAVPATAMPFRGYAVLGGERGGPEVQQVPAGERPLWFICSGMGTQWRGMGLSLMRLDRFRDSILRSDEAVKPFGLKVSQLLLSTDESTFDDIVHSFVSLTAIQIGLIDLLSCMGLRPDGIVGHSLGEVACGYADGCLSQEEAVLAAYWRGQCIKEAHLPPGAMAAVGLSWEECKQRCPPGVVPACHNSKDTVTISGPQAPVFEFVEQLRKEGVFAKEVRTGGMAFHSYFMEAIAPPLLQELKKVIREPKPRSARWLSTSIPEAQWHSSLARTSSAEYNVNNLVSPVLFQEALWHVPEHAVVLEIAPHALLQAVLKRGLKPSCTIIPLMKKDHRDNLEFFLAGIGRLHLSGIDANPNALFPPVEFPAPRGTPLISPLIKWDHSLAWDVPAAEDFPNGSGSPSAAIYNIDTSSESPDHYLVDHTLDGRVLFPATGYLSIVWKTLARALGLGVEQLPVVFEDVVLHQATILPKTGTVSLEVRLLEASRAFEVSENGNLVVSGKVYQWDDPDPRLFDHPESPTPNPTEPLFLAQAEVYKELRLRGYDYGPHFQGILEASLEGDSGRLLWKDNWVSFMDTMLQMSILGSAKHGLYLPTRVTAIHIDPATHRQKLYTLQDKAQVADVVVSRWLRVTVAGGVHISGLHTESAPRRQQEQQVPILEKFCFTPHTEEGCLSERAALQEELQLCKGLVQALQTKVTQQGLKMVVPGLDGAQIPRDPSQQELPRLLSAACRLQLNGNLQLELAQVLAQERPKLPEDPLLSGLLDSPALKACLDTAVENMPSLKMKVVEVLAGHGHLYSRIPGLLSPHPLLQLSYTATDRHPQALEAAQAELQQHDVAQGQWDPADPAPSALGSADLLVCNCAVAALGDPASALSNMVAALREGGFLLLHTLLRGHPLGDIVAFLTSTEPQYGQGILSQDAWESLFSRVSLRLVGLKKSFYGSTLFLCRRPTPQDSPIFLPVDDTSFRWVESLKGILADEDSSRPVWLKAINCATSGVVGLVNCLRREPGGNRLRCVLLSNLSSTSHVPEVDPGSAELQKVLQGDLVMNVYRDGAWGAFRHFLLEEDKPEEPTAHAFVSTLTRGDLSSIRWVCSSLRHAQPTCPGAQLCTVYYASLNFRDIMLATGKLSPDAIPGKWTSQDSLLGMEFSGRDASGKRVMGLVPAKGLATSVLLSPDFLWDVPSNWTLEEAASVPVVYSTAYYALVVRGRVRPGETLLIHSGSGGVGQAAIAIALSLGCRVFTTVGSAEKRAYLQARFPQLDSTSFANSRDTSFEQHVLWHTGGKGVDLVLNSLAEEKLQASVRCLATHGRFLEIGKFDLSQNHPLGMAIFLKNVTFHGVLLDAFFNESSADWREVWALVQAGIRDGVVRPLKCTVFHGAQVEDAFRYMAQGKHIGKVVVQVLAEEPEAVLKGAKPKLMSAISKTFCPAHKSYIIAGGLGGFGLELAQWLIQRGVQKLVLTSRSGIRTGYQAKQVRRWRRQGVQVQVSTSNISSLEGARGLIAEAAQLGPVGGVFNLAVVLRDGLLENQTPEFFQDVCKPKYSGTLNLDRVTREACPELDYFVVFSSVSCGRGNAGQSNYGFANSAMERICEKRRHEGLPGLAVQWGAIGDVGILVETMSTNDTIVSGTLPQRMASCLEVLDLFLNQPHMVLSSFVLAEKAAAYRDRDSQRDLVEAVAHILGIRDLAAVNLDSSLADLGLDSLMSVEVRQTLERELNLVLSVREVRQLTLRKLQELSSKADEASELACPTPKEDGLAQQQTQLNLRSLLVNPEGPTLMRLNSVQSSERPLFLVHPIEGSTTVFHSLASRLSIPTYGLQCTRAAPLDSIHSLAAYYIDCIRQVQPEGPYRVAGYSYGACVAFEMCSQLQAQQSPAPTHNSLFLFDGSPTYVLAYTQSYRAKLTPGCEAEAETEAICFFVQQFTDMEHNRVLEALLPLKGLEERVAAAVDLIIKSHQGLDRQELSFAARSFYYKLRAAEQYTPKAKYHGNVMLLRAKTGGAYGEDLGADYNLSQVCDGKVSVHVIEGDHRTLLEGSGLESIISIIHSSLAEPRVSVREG
Cytochrome P450 2C19, sequence (P33261 whole entry): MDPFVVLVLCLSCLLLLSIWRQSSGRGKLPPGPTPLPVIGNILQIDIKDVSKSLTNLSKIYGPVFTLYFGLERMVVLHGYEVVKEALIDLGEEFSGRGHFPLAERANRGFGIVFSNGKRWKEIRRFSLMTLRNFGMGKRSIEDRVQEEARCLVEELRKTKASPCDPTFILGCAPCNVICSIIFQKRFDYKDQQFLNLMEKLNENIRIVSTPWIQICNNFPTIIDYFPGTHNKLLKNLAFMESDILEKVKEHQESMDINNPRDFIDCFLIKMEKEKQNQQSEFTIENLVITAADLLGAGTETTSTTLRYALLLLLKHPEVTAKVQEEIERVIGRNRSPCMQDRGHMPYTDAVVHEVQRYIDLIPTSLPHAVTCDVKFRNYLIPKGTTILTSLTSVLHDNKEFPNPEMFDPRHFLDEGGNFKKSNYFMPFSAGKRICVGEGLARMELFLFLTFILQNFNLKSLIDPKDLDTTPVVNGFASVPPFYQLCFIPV
Nucleotide-binding oligomerization domain-containing protein 2, sequence (Q9HC29 whole entry, the tested form may be a part): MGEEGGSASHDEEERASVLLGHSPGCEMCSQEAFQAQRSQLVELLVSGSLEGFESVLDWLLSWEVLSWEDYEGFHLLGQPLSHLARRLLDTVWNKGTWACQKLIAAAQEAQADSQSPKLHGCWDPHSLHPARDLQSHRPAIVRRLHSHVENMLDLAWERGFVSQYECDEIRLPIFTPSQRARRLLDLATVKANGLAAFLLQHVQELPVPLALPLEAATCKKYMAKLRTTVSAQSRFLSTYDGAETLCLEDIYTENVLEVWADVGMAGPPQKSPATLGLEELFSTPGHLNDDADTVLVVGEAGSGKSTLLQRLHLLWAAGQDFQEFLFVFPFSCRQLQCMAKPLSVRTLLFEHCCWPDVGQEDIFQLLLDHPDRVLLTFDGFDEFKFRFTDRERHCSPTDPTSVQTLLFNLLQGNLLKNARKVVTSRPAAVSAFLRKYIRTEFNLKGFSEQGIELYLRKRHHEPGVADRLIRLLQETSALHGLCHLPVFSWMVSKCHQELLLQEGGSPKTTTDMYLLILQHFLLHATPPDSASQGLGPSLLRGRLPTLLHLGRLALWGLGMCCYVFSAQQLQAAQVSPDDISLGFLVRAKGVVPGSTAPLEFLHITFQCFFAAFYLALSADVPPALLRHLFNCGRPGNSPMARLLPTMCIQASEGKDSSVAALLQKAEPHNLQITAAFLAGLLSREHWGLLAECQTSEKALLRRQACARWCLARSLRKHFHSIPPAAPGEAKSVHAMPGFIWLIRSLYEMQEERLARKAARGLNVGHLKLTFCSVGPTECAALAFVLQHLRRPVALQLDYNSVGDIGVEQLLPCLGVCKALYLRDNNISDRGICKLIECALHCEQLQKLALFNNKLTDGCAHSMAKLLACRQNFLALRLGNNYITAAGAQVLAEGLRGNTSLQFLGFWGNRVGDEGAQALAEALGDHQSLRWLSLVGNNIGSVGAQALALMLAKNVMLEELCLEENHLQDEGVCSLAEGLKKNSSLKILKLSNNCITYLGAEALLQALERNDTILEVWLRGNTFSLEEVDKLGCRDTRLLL

CN(C1CCCCC1)S(=O)(=O)c1ccc(NC(=O)C2CCCCC2C(=O)O)cc1 (stereo not drawn)
IC50 [1]: 4.72 µM (active)

CCOc1ccc(-c2csc(/C(C#N)=C\c3ccc(O)c([N+](=O)[O-])c3)n2)cc1
AC50 [2]: 4 µM (active) | IC50 [3]: 1.83 µM (active) | EC50 [4]: 6.23 µM (active) | IC50 [5]: > 20 µM (inactive) | EC50 [6]: 1.52 µM (active) | IC50 [7]: 6.74 µM (active) | EC50 [8]: 3.58 µM (active) | CC50 [9]: 10.5 µM (active) | IC50 [10]: 2.58 µM (inactive) | EC50 [11]: 2.18 µM (active) | IC50 [12]: 6.61 µM (active) | IC50 [13]: 6.63 µM (active)

COc1ccc(C(=O)C2=C(O)C(=O)N(Cc3cccnc3)C2c2ccco2)cc1OC (stereo not drawn)
EC50 [14]: 64 µM (inactive) | AC50 [15]: 0.0891 µM (inconclusive)

COc1ccc(N2CCN(C(=O)c3c(-c4ccccc4)noc3C)CC2)cc1
IC50 [16]: > 50 µM (inactive)

CCN1CCN(S(=O)(=O)c2ccc(Cl)c(C(=O)Nc3ccc(C(=O)N(CC)CC)cc3)c2)CC1
EC50 [17]: > 112 µM (not active) | IC50 [18]: > 100 µM (inactive) | IC50 [19]: 1.33 µM (active) | EC50 [20]: > 112 µM (not active) | IC50 [21]: 15.1 µM (active) | IC50 [22]: > 100 µM (inactive)

Cc1ccc2nc3sc(-c4nnc(-c5ccccc5[N+](=O)[O-])o4)c(N)c3cc2c1
IC50 [23]: > 100 µM (inactive)
